Measurements from patent US20100152434A1, “Protein Kinase-binding Nucleosides and Associated Methods” (priority 2007, published 2010).
Like-named read-outs stand apart in the source and are kept apart here.

Assays:
A498 [1] = system: A498
HCT-116 = test: cells; settings: Homo sapiens, HCT-116, 48 h
RPMI-8226 [2] = system: RPMI-8226
UO-31 [3] = test: cells; settings: Homo sapiens, UO-31, 48 h
MCF7 = test: cells; settings: Homo sapiens, MCF7, 48 h
HOP-62 [4] = settings: HOP-62
M14 [5] = system: M14
A498 [6] = test: cells; settings: Homo sapiens, A498, 48 h
NCI-H460 = test: cells; settings: Homo sapiens, NCI-H460, 48 h
SF-268 [7] = test: cells; settings: Homo sapiens, SF-268, 48 h
NCI-H322M = test: cells; settings: Homo sapiens, NCI-H322M, 48 h
UO-31 [8] = system: UO-31
SF-268 [9] = system: SF-268
HOP-62 [10] = test: cells; settings: Homo sapiens, HOP-62, 48 h
M14 [11] = test: cells; settings: Homo sapiens, M14, 48 h
RPMI-8226 [12] = test: cells; settings: Homo sapiens, RPMI-8226, 48 h
CAKI-1 [13] = test: cells; settings: Homo sapiens, CAKI-1, 48 h
LOX IMVI [14] = system: LOX IMVI
LOX IMVI [15] = test: cells; settings: Homo sapiens, 48 h
SF-295 [16] = system: SF-295
SF-295 [17] = test: cells; settings: Homo sapiens, SF-295, 48 h
CAKI-1 [18] = system: CAKI-1
[19] = Log10 Concentration −4.0, Molar
[20] = Log10 Concentration −5.0, Molar
[21] = Log10 Concentration −6.0, Molar
[22] = Log10 Concentration −7.0, Molar
[23] = Log10 Concentration −8.0, Molar

## CCOC(=O)C[C@@H]1C(O[Si](C)(C)C(C)(C)C)[C@H](n2cnc3c(NC(=O)Nc4ccccc4)ncnc32)O[C@@H]1CNC(=O)NC (some centres unmarked) [Compound 10]
A498 [1]; 48 h
  TGI: 1.71E−5 Molar
A498 [1]; [19]
  Percent Growth: −41%
A498 [1]; [20]
  Percent Growth: 13%
A498 [1]; [21]
  Percent Growth: 91%
A498 [1]; [22]
  Percent Growth: 92%
A498 [1]; [23]
  Percent Growth: 95%
HCT-116
  GI50: 3.2 µM
HCT-116; read-out: LC50
  CC50: 45.6 µM
RPMI-8226 [2]; 48 h
  TGI: 4.57E−6 Molar
RPMI-8226 [2]; [19]
  Percent Growth: −57%
RPMI-8226 [2]; [20]
  Percent Growth: −27%
RPMI-8226 [2]; [21]
  Percent Growth: 53%
RPMI-8226 [2]; [22]
  Percent Growth: 75%
RPMI-8226 [2]; [23]
  Percent Growth: 77%
UO-31 [3]
  GI50: 12.1 µM
UO-31 [3]; read-out: LC50
  CC50: 71.7 µM
MCF7
  GI50: 3.42 µM
MCF7; read-out: LC50
  CC50: > 100 µM
HOP-62 [4]; 48 h
  TGI: 2.64E−5 Molar
HOP-62 [4]; [19]
  Percent Growth: −65%
HOP-62 [4]; [20]
  Percent Growth: 48%
HOP-62 [4]; [21]
  Percent Growth: 97%
HOP-62 [4]; [22]
  Percent Growth: 92%
HOP-62 [4]; [23]
  Percent Growth: 99%
M14 [5]; 48 h
  TGI: 1.16E−5 Molar
M14 [5]; [19]
  Percent Growth: −56%
M14 [5]; [20]
  Percent Growth: 4%
M14 [5]; [21]
  Percent Growth: 81%
M14 [5]; [22]
  Percent Growth: 82%
M14 [5]; [23]
  Percent Growth: 90%
KM12; 48 h
  TGI: 2.09E−5 Molar
KM12; [19]
  Percent Growth: −28%
KM12; [20]
  Percent Growth: 13%
KM12; [21]
  Percent Growth: 105%
KM12; [22]
  Percent Growth: 112%
KM12; [23]
  Percent Growth: 107%
A498 [6]
  GI50: 3.34 µM
A498 [6]; read-out: LC50
  CC50: > 100 µM
NCI-H460
  GI50: 5.54 µM
NCI-H460; read-out: LC50
  CC50: > 100 µM
SF-268 [7]
  GI50: 6.53 µM
SF-268 [7]; read-out: LC50
  CC50: 92.5 µM
NCI-H322M
  GI50: > 100 µM
NCI-H322M; read-out: LC50
  CC50: > 100 µM
UO-31 [8]; 48 h
  TGI: 2.95E−5 Molar
UO-31 [8]; [19]
  Percent Growth: −69%
UO-31 [8]; [20]
  Percent Growth: 61%
UO-31 [8]; [21]
  Percent Growth: 82%
UO-31 [8]; [22]
  Percent Growth: 87%
UO-31 [8]; [23]
  Percent Growth: 87%
SF-268 [9]; 48 h
  TGI: 2.70E−5 Molar
SF-268 [9]; [19]
  Percent Growth: −53%
SF-268 [9]; [20]
  Percent Growth: 40%
SF-268 [9]; [21]
  Percent Growth: 93%
SF-268 [9]; [22]
  Percent Growth: 103%
SF-268 [9]; [23]
  Percent Growth: 102%
HOP-62 [10]
  GI50: 8.96 µM
HOP-62 [10]; read-out: LC50
  CC50: 73.1 µM
M14 [11]
  GI50: 2.51 µM
M14 [11]; read-out: LC50
  CC50: 78.6 µM
RPMI-8226 [12]
  GI50: 1.09 µM
RPMI-8226 [12]; read-out: LC50
  CC50: 59 µM
CAKI-1 [13]
  GI50: 29.7 µM
CAKI-1 [13]; read-out: LC50
  CC50: > 100 µM
DU-145; 48 h
  TGI: 1.94E−5 Molar
DU-145; [19]
  Percent Growth: −59%
DU-145; [20]
  Percent Growth: 24%
DU-145; [21]
  Percent Growth: 110%
DU-145; [22]
  Percent Growth: 123%
DU-145; [23]
  Percent Growth: 110%
LOX IMVI [14]; 48 h
  TGI: >1.00E−4 Molar
LOX IMVI [14]; [19]
  Percent Growth: 4%
LOX IMVI [14]; [20]
  Percent Growth: 35%
LOX IMVI [14]; [21]
  Percent Growth: 93%
LOX IMVI [14]; [22]
  Percent Growth: 97%
LOX IMVI [14]; [23]
  Percent Growth: 97%
A549/ATCC; 48 h
  TGI: 1.92E−5 Molar
A549/ATCC; [19]
  Percent Growth: −58%
A549/ATCC; [20]
  Percent Growth: 23%
A549/ATCC; [21]
  Percent Growth: 94%
A549/ATCC; [22]
  Percent Growth: 103%
A549/ATCC; [23]
  Percent Growth: 102%
LOX IMVI [15]
  GI50: 5.46 µM
LOX IMVI [15]; read-out: LC50
  CC50: > 100 µM
SF-295 [16]; 48 h
  TGI: >1.00E−4 Molar
SF-295 [16]; [19]
  Percent Growth: 24%
SF-295 [16]; [20]
  Percent Growth: 38%
SF-295 [16]; [21]
  Percent Growth: 88%
SF-295 [16]; [22]
  Percent Growth: 91%
SF-295 [16]; [23]
  Percent Growth: 91%
SF-295 [17]
  GI50: 5.73 µM
SF-295 [17]; read-out: LC50
  CC50: > 100 µM
CAKI-1 [18]; 48 h
  TGI: >1.00E−4 Molar
CAKI-1 [18]; [19]
  Percent Growth: 7%
CAKI-1 [18]; [20]
  Percent Growth: 88%
CAKI-1 [18]; [21]
  Percent Growth: 99%
CAKI-1 [18]; [22]
  Percent Growth: 95%
CAKI-1 [18]; [23]
  Percent Growth: 88%
SK-OV-3; 48 h
  TGI: >1.00E−4 Molar
SK-OV-3; [19]
  Percent Growth: 16%
SK-OV-3; [20]
  Percent Growth: 66%
SK-OV-3; [21]
  Percent Growth: 90%
SK-OV-3; [22]
  Percent Growth: 96%
SK-OV-3; [23]
  Percent Growth: 96%
